The compounds below were run against GDP-loaded KRAS G12D (Homo sapiens, UniProt P01116, G12D) (assay: KRAS G12D Probe Displacement Assay). Conditions: KRAS G12D 0.5 nM, biotinylated probe 2 4 nM; Table 6 letters; read-out: KRAS G12D Probe Displacement Assay IC50 (class).
Type: binding

Chain of GDP-loaded KRAS G12D (P01116 1-188 isoform P01116-2 G12D): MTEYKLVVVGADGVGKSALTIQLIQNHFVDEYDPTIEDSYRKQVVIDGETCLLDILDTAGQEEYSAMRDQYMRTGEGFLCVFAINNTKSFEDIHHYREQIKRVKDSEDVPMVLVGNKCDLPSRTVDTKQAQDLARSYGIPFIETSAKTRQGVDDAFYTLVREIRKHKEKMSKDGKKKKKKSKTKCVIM

IC50, < 50 nM:
N#CC1(COc2nc(N3CC4CCC(C3)N4)c3cc(C(F)(F)F)c(-c4ccc(F)c5sc(N)nc45)c(F)c3n2)CC1 [Example E147, 1-(((7-(2-amino-7-fluorobenzo[d]thiazol-4-yl)-4-(3,8-diazabicyclo [3.2.1]octan-3-yl)-8-fluoro-6-(trifluoromethyl)quinazolin-2-yl)oxy)methyl)cyclopropane-1-carbonitrile]
CC(F)(F)c1c(Cl)cc(N)nc1-c1c(Cl)cc2c(N3CC4CCC(C3)N4)nc(OC[C@@]34CCCN3C[C@H](F)C4)nc2c1F [Example E130, 6-(4-(3,8-diazabicyclo[3.2.1]octan-3-yl)-6-chloro-8-fluoro-2-(((2R,7aS)-2-fluorotetrahydro-1H-pyrrolizin-7a(5H)-yl)methoxy)quinazolin-7-yl)-4-chloro-5-(1,1-difluoroethyl)pyridin-2-amine]
Nc1nc2c(-c3cc4nc(OC[C@@]56CCCN5C[C@H](F)C6)nc(N5CC6CCC(C5)N6)c4cc3C(F)(F)F)ccc(F)c2s1 [Example E128, 4-(4-(3,8-diazabicyclo[3.2.1]octan-3-yl)-2-(((2R,7aS)-2-fluorotetra hydro-1H-pyrrolizin-7a(5H)-yl)methoxy)-6-(trifluoromethyl)quinazolin-7-yl)-7-fluorobenzo[d] thiazol-2-amine]
Cc1cc(N)nc(-c2c(Cl)cc3c(N4CC5CCC(C4)N5)nc(OCC(C)(C)CO)nc3c2F)c1C(F)(F)F [Example E193, 3-((7-(6-amino-4-methyl-3-(trifluoromethyl)pyridin-2-yl)-4-(3,8-diazabicyclo[3.2.1]octan-3-yl)-6-chloro-8-fluoroquinazolin-2-yl)oxy)-2,2-dimethylpropan-1-ol]
N#Cc1c(N)sc2c(F)ccc(-c3c(C(F)(F)F)cc4c(N5CC6CCC(C5)N6)nc(OCC56COC(C5)C6)nc4c3F)c12 [Example E236, 4-(2-((2-oxabicyclo[2.1.1]hexan-4-yl)methoxy)-4-(3,8-diazabicyclo[3.2.1]octan-3-yl)-8-fluoro-6-(trifluoromethyl)quinazolin-7-yl)-2-amino-7-fluorobenzo [b]thiophene-3-carbonitrile]
Cc1cc(N)nc(-c2c(Cl)cc3c(N4CC5CCC(C4)N5)nc(OCC4(CO)CCOC4)nc3c2F)c1C(F)(F)F (stereo not shown) [Example E230, (3-(((7-(6-amino-4-methyl-3-(trifluoromethyl)pyridin-2-yl)-4-(3,8-diazabicyclo[3.2.1]octan-3-yl)-6-chloro-8-fluoroquinazolin-2-yl)oxy)methyl)tetrahydrofuran-3-yl)methanol]
Nc1nc2c(-c3c(C(F)(F)F)cc4c(N5CC6CCCC(C5)N6)nc(OC[C@@]56CCCN5C[C@H](F)C6)nc4c3F)ccc(F)c2s1 [Example E90, 4-(4-(3,9-diazabicyclo[3.3.1]nonan-3-yl)-8-fluoro-2-(((2R,7aS)-2-fluorotetrahydro-1H-pyrrolizin-7a(5H)-yl)methoxy)-6-(trifluoromethyl)quinazolin-7-yl)-7-fluorobenzo[d]thiazol-2-amine]
CC1(COc2nc(N3CC4CCC(C3)N4)c3cc(C(F)(F)F)c(-c4ccc(F)c5sc(N)nc45)c(F)c3n2)COCCO1 (stereo not shown) [Example E215, 4-(4-(3,8-diazabicyclo[3.2.1]octan-3-yl)-8-fluoro-2-((2-methyl-1,4-dioxan-2-yl)methoxy)-6-(trifluoromethyl)quinazolin-7-yl)-7-fluorobenzo[d]thiazol-2-amine]
Nc1nc2c(-c3c(C(F)(F)F)cc4c(N5CC6CCC(C5)N6)nc(OC5CCS(=O)(=O)CC5)nc4c3F)ccc(F)c2s1 [Example E160]
Cc1cc(N)nc(-c2c(Cl)cc3c(N4C5CCC4CNC5)nc(OC[C@@]45CCCN4C[C@H](F)C5)nc3c2F)c1C(F)(F)F [Example E96]
Nc1nc2c(-c3c(C(F)(F)F)cc4c(N5CC6CCC(C5)N6)nc(OCC5(CO)CCC5)nc4c3F)ccc(F)c2s1 [Example E154, (1-(((7-(2-amino-7-fluorobenzo[d]thiazol-4-yl)-4-(3,8-diazabicyclo[3.2.1]octan-3-yl)-8-fluoro-6-(trifluoromethyl)quinazolin-2-yl)oxy)methyl)cyclobutyl) methanol]
Nc1nc2c(-c3c(C(F)(F)F)cc4c(N5CC6CCC(C5)N6)nc(OC5CCOCC5F)nc4c3F)ccc(F)c2s1 (stereo not shown) [Example E159, 4-(4-(3,8-diazabicyclo[3.2.1]octan-3-yl)-8-fluoro-2-((3-fluorotetra hydro-2H-pyran-4-yl)oxy)-6-(trifluoromethyl)quinazolin-7-yl)-7-fluorobenzo[d]thiazol-2-amine]
CC1(COc2nc(N3CC4CCC(C3)N4)c3cc(C(F)(F)F)c(-c4ccc(F)c5sc(N)nc45)c(F)c3n2)CCCOC1 (stereo not shown) [Example E183, 4-(4-(3,8-diazabicyclo[3.2.1]octan-3-yl)-8-fluoro-2-((3-methyltetra hydro-2H-pyran-3-yl)methoxy)-6-(trifluoromethyl)quinazolin-7-yl)-7-fluorobenzo[d]thiazol-2-amine]
Nc1nc2c(-c3c(SC(F)(F)F)cc4c(N5CC6CCC(C5)N6)nc(OC[C@@]56CCCN5C[C@H](F)C6)nc4c3F)ccc(F)c2s1 [Example E94, 4-(4-(3,8-diazabicyclo[3.2.1]octan-3-yl)-8-fluoro-2-(((2R,7aS)-2-fluorotetrahydro-1H-pyrrolizin-7a(5H)-yl)methoxy)-6-((trifluoromethyl)thio)quinazolin-7-yl)-7-fluorobenzo[d]thiazol-2-amine]
Cc1cc(N)nc(-c2c(Cl)cc3c(N4CC5CCC(C4)N5)nc(OCC4(CO)CC4)nc3c2F)c1C(F)(F)F [Example E197, (1-(((7-(6-amino-4-methyl-3-(trifluoromethyl)pyridin-2-yl)-4-(3,8-diazabicyclo[3.2.1]octan-3-yl)-6-chloro-8-fluoroquinazolin-2-yl)oxy)methyl)cyclopropyl) methanol]
Oc1cc(Cl)c(C2CC2)c(-c2c(Cl)cc3c(N4CC5CCC(C4)N5)nc(OC[C@@]45CCCN4C[C@H](F)C5)nc3c2F)c1 [Example E123, 3-(4-(3,8-diazabicyclo[3.2.1]octan-3-yl)-6-chloro-8-fluoro-2-(((2R,7aS)-2-fluorotetrahydro-1H-pyrrolizin-7a(5H)-yl)methoxy)quinazolin-7-yl)-5-chloro-4-cyclopropylphenol]
Cc1cc(N)nc(-c2c(C#N)cc3c(N4CC5CCC(C4)N5)nc(OC[C@@]45CCCN4C[C@H](F)C5)nc3c2F)c1C(F)(F)F [Example E119, 7-(6-amino-4-methyl-3-(trifluoromethyl)pyridin-2-yl)-4-(3,8-diazabicyclo [3.2.1]octan-3-yl)-8-fluoro-2-(((2R,7aS)-2-fluorotetrahydro-1H-pyrrolizin-7a(5H)-yl)methoxy) quinazoline-6-carbonitrile]
Cc1cc(N)nc(-c2c(Cl)cc3c(N4CC5CCC(C4)N5)nc(OCC45CCCN4C(CF)CC5)nc3c2F)c1C(F)(F)F (stereo not shown) [Example E133, 6-(4-(3,8-diazabicyclo[3.2.1]octan-3-yl)-6-chloro-8-fluoro-2-((3-(fluoromethyl)tetrahydro-1H-pyrrolizin-7a(5H)-yl)methoxy)quinazolin-7-yl)-4-methyl-5-(trifluoromethyl)pyridin-2-amine]
Nc1nc2c(-c3c(C(F)(F)F)cc4c(N5CC6CCC(C5)N6)nc(OC[C@H]5CNC(=O)CO5)nc4c3F)ccc(F)c2s1 [Example E179, (6R)-6-(((7-(2-amino-7-fluorobenzo[d]thiazol-4-yl)-4-(3,8-diazabicyclo[3.2.1]octan-3-yl)-8-fluoro-6-(trifluoromethyl)quinazolin-2-yl)oxy)methyl)morpholin-3-one]
COC1CC(COc2nc(N3CC4CCC(C3)N4)c3cc(C(F)(F)F)c(-c4ccc(F)c5sc(N)nc45)c(F)c3n2)C1 (stereo not shown) [Example E150, 4-(4-(3,8-diazabicyclo[3.2.1]octan-3-yl)-8-fluoro-2-((3-methoxycyclobutyl)methoxy)-6-(trifluoromethyl)quinazolin-7-yl)-7-fluorobenzo[d]thiazol-2-amine]
Nc1nc2c(-c3c(C(F)(F)F)cc4c(N5CC6CCC(C5)N6)nc(OCC56CCC(CC5)OC6)nc4c3F)ccc(F)c2s1 [Example E165, 4-(2-((2-oxabicyclo[2.2.2]octan-4-yl)methoxy)-4-(3,8-diazabicyclo[3.2.1]octan-3-yl)-8-fluoro-6-(trifluoromethyl)quinazolin-7-yl)-7-fluorobenzo[d]thiazol-2-amine]
C[C@@H](CN1CCC(F)CC1)Oc1nc(N2CC3CCC(C2)N3)c2cc(Cl)c(-c3ccc(F)c4sc(N)c(C#N)c34)c(F)c2n1 [Example E116, 4-(4-(3,8-diazabicyclo[3.2.1]octan-3-yl)-6-chloro-8-fluoro-2-(((S)-1-(4-fluoropiperidin-1-yl)propan-2-yl)oxy)quinazolin-7-yl)-2-amino-7-fluorobenzo[b]thiophene-3-carbonitrile]
Oc1cc(F)c(C(F)(F)F)c(-c2c(F)cc3c(N4CC5CCC(C4)N5)nc(OC[C@@]45CCCN4C[C@H](F)C5)nc3c2F)c1 [Example E110, 3-(4-(3,8-diazabicyclo[3.2.1]octan-3-yl)-6,8-difluoro-2-(((2R,7aS)-2-fluorotetrahydro-1H-pyrrolizin-7a(5H)-yl)methoxy)quinazolin-7-yl)-5-fluoro-4-(trifluoromethyl)phenol]
Cc1cc(N)c(C#N)c(-c2c(Cl)cc3c(N4CC5CCC(C4)N5)nc(OC[C@@]45CCCN4C[C@H](F)C5)nc3c2F)c1I [Example E118, 2-(4-(3,8-diazabicyclo[3.2.1]octan-3-yl)-6-chloro-8-fluoro-2-(((2R,7aS)-2-fluorotetrahydro-1H-pyrrolizin-7a(5H)-yl)methoxy)quinazolin-7-yl)-6-amino-3-iodo-4-methylbenzonitrile]
N#Cc1cc(N)nc(-c2c(Cl)cc3c(N4CC5CCC(C4)N5)nc(OC[C@@]45CCCN4C[C@H](F)C5)nc3c2F)c1C(F)(F)F [Example E109, 2-(4-(3,8-diazabicyclo[3.2.1]octan-3-yl)-6-chloro-8-fluoro-2-(((2R,7aS)-2-fluorotetrahydro-1H-pyrrolizin-7a(5H)-yl)methoxy)quinazolin-7-yl)-6-amino-3-(trifluoromethyl)isonicotinonitrile]
